Reference: US11351151B2, “Compound having anticancer activity and preparation method and application” (3D Medicines (Beijing) Co., Ltd., priority 2016, dated 2022)
Where “and” joins values, the source holds several entries; their conditions need not be identical. Equal values may be shown once. Values belong to the molecule of their own block, whether it stands above or below them.

Experiments:
[1] = Liver homogenate incubation stability study; format: in vitro ADME, SD rat; conditions: for Residual intermediate: listed as intermediate
Description: (§1) The purpose of this example was to investigate the stability of the precursor Linifanib-C12-AA5 (compound 8) and the intermediate Linifanib-C12-Asp (compound 12) in plasma, liver homogenate and spleen homogenate (precursor Linifanib-C12-AA5 metabolizes into the intermediates Linifanib-C12-Asp and Linifanib; the intermediate Linifanib-C12-Asp is further metabolized to form Linifanib), and the metabolites were analyzed quantitatively, and the stability of the incubation system was verified with positive drugs, providing references for compound drug evaluation.
(§2) Experimental Procedure • 1. Animal blood was collected, blood samples were placed in EDTA anticoagulation tubes, centrifuged at 3000 g for 15 min at 4° C., plasma was separated, and 2 blood samples were mixed in equal volumes; • 2. Weighed and dissolved a certain amount of Linifanib-C12-AA5/Linifanib-C12-Asp in DMSO:MeOH (2:8), prepared 200 μM mother liquor by purity, and added the compound to the plasma to a final concentration of 2 μg/mL. The organic ratio in the system was not more than 0.5%. • 3. Incubated in a 37° C. water bath and set the sampling points to 0, 0.5, 1, 2, 4, 6, and 8 h. At each sampling point, 100 μL of each sample was added to 300 μL of acetonitrile (with internal standard) for precipitation, centrifuged at 12,000 rpm for 5 min, and 200 μL of supernatant was taken for analysis by LC-MS/MS. • 4. Configured the standard curve to quantify Linifanib, Linifanib-C12-Asp and residual Linifanib-C12-AA5. • 2.2 Linifanib-C12-AA5 and Linifanib-C12-Asp liver/spleen homogenate incubation stability study protocol Test animal • Type: SD rat; Quantity: 2 • Sex: Male; Weight: 200-250 g
(§3) Experimental Procedure • 1. Biological analysis method: established the biological analysis method of the compound Linifanib-C12-Asp and Linifanib; • 2. Rat liver/spleen was taken on the day of the experiment, two pieces were cut and mixed, and homogenized with 4 volumes (1 g: 4 mL) phosphate buffer (pH 7.4), and the temperature was controlled to not exceed 10° C. in the homogenization process; quantitative detection of protein, and controlled liver and spleen protein concentration. • 3. Added the drug Linifanib-C12-AA5, Linifanib-C12-Asp to the liver/spleen homogenate to a concentration of 1000 ng/mL, the incubation volume was 1 mL, and controlled the concentration of the organic solvent in the incubation system to not exceed 0.5%. • 4. Incubated in a 37° C. water bath and took 100 μL of samples at 0, 0.5, 1, 2, 4, 6, and 8 h, respectively. After pre-processing the samples with a definite method, the LC-MS/MS analysis was carried out. • 5. Prepared a standard curve with blank liver/spleen homogenate to quantify Linifanib-C12-Asp and Linifanib. 3. Stability Study Results

[2] = Spleen homogenate incubation stability study; format: in vitro ADME, SD rat
Description: as §1, §2, §3

[3] = liver cancer patients, phase III; cited from earlier work

Structure (SMILES): Cc1ccc(F)c(NC(=O)Nc2ccc(-c3cccc4c3c(N)nn4C(=O)CCCCCCCCCCCNC(=O)C[C@H](N)C(=O)N[C@@H](CCC(=O)N[C@@H](CCC(=O)N[C@@H](CCC(=O)N[C@@H](CCC(=O)O)C(=O)O)C(=O)O)C(=O)O)C(=O)O)cc2)c1 [Compound 8]
conversion of prodrug into active drug, liver versus spleen homogenate ([1]; FIG. 5, comparison of liver and spleen homogenate): more specifically converted into an active drug in the liver

Residual intermediate ([2]; first experiment, 1000 ng/mL added, 0 h, listed as intermediate): 900 ng/mL and 1020 ng/mL
Residual intermediate ([2]; first experiment, 1000 ng/mL added, 0.5 h): 959 ng/mL
Residual intermediate ([2]; first experiment, 1000 ng/mL added, 2 h, listed as intermediate): 755 ng/mL and 681 ng/mL
Residual intermediate ([2]; first experiment, 1000 ng/mL added, 4 h, listed as intermediate): 610 ng/mL and 589 ng/mL
Residual intermediate ([2]; first experiment, 1000 ng/mL added, 6 h, listed as intermediate): 470 ng/mL and 467 ng/mL
Residual intermediate ([2]; first experiment, 1000 ng/mL added, 8 h, listed as intermediate): 499 ng/mL and 506 ng/mL
Residual intermediate ([2]; second experiment, 0 h, listed as intermediate): 812 ng/mL and 844 ng/mL
Residual intermediate ([2]; second experiment, 0.5 h, listed as intermediate): 770 ng/mL and 744 ng/mL
Residual intermediate ([2]; second experiment, 6 h, listed as intermediate): 496 ng/mL and 483 ng/mL
conversion into Linifanib in liver homogenate ([1]; liver homogenate): can be rapidly converted into Linifanib
Residual intermediate ([1]; liver homogenate, first experiment, 1000 ng/mL added, 0 h): 1130 ng/mL and 1260 ng/mL
Residual intermediate ([1]; liver homogenate, first experiment, 1000 ng/mL added, 0.5 h): 1000 ng/mL and 970 ng/mL
Residual intermediate ([1]; liver homogenate, first experiment, 1000 ng/mL added, 1 h): 1130 ng/mL and 946 ng/mL
Residual intermediate ([1]; liver homogenate, first experiment, 1000 ng/mL added, 2 h): 1000 ng/mL and 602 ng/mL
Residual intermediate ([1]; liver homogenate, first experiment, 1000 ng/mL added, 4 h): 294 ng/mL and 456 ng/mL
Residual intermediate ([1]; liver homogenate, first experiment, 1000 ng/mL added, 6 h): 452 ng/mL and 226 ng/mL
Residual intermediate ([1]; liver homogenate, second experiment, 0 h): 649 ng/mL and 634 ng/mL
Residual intermediate ([1]; liver homogenate, second experiment, 0.5 h): 452 ng/mL and 469 ng/mL
Residual intermediate ([1]; liver homogenate, second experiment, 6 h): 309 ng/mL and 340 ng/mL
Structure (SMILES): Cc1ccc(F)c(NC(=O)Nc2ccc(-c3cccc4c3c(N)nn4C(=O)CCCCCCCCCCCNC(=O)C[C@H](N)C(=O)O)cc2)c1 [Compound 12]

Structure (SMILES): Cc1ccc(F)c(NC(=O)Nc2ccc(-c3cccc4[nH]nc(N)c34)cc2)c1 [Linifanib, reference compound]
toxicity and side effects [3]: greater than Sorafenib
